Experimental findings from publication PMC8199124, “Design, Synthesis and In-Vitro Biological Evaluation of Antofine and Tylophorine Prodrugs as Hypoxia-Targeted Anticancer Agents” (Molecules, 2021) are described below.

Bounds are passed on as bounds.

Series [1] can be described thus: Mouse plasma stability test. Type of series: in vitro ADME. To be noted: 37 °C, up to 24 h, read-out: t1/2 (Mouse Plasma) (converted). As to the method:
(§1) Incubations were carried out in 6 aliquots of 70 μL each in duplicates. […] The reactions were stopped by adding 350 μL of acetonitrile with subsequent plasma proteins sedimentation by centrifuging at 5500 rpm for 5 min. Supernatants were analyzed by LC-MS using Shimadzu VP HPLC system including vacuum degasser, gradient pumps, reverse phase column, column oven and autosampler. The HPLC system was coupled with tandem mass spectrometer API 3000 (PE Sciex, Foster City, CA, USA). Both the positive and negative ion modes of the TurboIonSpray ion source were used. The acquisition and analysis of the data were performed using Analyst 1.5.2 software (PE Sciex, API 3000 mass spectrometer, Foster City, CA, USA). The percentage of the test compounds remaining after incubation in plasma and their half-lives (T1/2) were calculated.

Series [2] is described as follows: Human plasma stability test. The format is in vitro ADME. To be noted: 37 °C, up to 24 h, read-out: t1/2 (Human Plasma) (converted). As for the experimental part:
as §1

On to `CC(C)[N+](C)(CCOC(=O)C1c2ccccc2Oc2ccccc21)C(C)C` [Propantheline], for which the half-life at 1 μM in series [1] and in series [2] was < 3 h each time.
